Laboratory results reported in PubChem BioAssay (NCI).
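Cultured in 96-well plates, cells were exposed to test compound for 48 hours across five concentrations. The concentration for full growth arrest is given as TGI.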

Experiments:
Assay in all cases: NCI anticancer screen, dose series, 48 h
[1] = test system: HL-60(TB) leukemia
[2] = test system: DMS 114 small cell lung
[3] = test system: M19-MEL melanoma
[4] = test system: KM20L2 colon
[5] = test system: ACHN renal
[6] = test system: 786-0 renal
[7] = test system: DLD-1 colon
[8] = test system: XF 498 CNS
[9] = test system: DMS 273 small cell lung
[10] = test system: LXFL 529 NSCLC
[11] = test system: SNB-78 CNS
[12] = test system: HOP-18 NSCLC

| Compound | TGI [1] [µM] | TGI [5] [µM] | TGI [6] [µM] | other results |
| --- | --- | --- | --- | --- |
| N#C/C(c1nc2ccccc2[nH]1)=c1\s/c(=C(/N)O)c(=N)n1-c1ccccc1 | > 100 | > 100 | > 100 | TGI [2]: > 100 µM; TGI [3]: > 100 µM; TGI [4]: > 100 µM; TGI [7]: > 100 µM; TGI [8]: > 100 µM; TGI [9]: > 100 µM; TGI [10]: > 100 µM; TGI [11]: > 100 µM |
| Cc1cc(C)c2c(n1)S(=O)(=O)N(CCCN1CCN(c3cccc(Cl)c3)CC1)/C(=C(\O)c1ccccc1)C2=O | 71 | > 100 | > 100 |  |
| COCCOC(=O)NCn1cc(-c2ccccc2)nn1 | > 100 | > 100 | > 100 |  |
| N#Cc1cc2c(cc1C#N)/C(=N\c1cccc(N)n1)N=C2Nc1cccc(N)n1 | > 100 | 57.3 | 30.6 |  |
| C=C1CCCC(C)(C)[C@H]1C/C=C1\CCOC1=O | 43.8 | 29.4 | 28.7 |  |
| S=C=Nc1ccc(CSc2nc3ccccc3[nH]2)cc1 | > 100 | 30.5 | 37.5 |  |
| Cc1csc(NNC(N)=O)n1 | > 100 | > 100 | > 100 |  |
| O=C1c2c(ccc3c2CCC3)CC1Cc1ccc2c(c1)CCC2 (stereo not given) | 21.7 | > 100 | 99.1 |  |
| O=C1CNC(=O)/C(=C/c2c[nH]c3ccccc23)N1 | > 100 | > 100 | > 100 |  |
| COC(=O)CN(CC(O)C(NC(C)=O)C(O)C=O)C(=O)OCc1ccccc1 (stereo not given) | > 100 | > 100 | > 100 |  |
| Cc1ccc(S(=O)(=O)N2CCCSCCSCCCN(S(=O)(=O)c3ccc(C)cc3)CC2)cc1 |  | > 100 | > 100 |  |
| O=C1CCC(=O)N1CNc1ccc2c(c1)S(=O)(=O)c1ccccc1O2 | > 100 | > 100 | > 100 |  |
| CCOC(=O)Nc1sc2c(c1C#N)CC(C)CC2 (stereo not given) | 13.1 | 88.5 | 40.6 |  |
| COC(=O)c1c(C)[nH]c2c1C(=O)C(=O)c1nc(C)c(C)nc1-2 | 29.2 | 47.3 | 25.9 |  |
| O=C(O)CCO/N=C1/C(c2c(O)[nH]c3ccccc23)=Nc2ccccc21 | 62.4 | > 100 | 94.8 |  |
| c1csc(-c2nccc3c2[nH]c2ccccc23)c1 | 55.9 | 73.7 | 32.9 |  |
| O/N=C1\CC2(N3CCOCC3)CCC1(c1ccccc1)CC2 | > 100 | > 100 | > 100 |  |
| COC(=O)C1CCC(=O)N1CN(C(C)=O)c1cc(OC)ccc1OC (stereo not given) | > 100 | > 100 | > 100 |  |

| Compound | TGI [1] [µM] | TGI [5] [µM] | TGI [6] [µM] | other results |
| --- | --- | --- | --- | --- |
| Cc1c(O)c(OC2OC(CO)C(O)C(O)C2O)cc2c1CC[C@@H]1C2(C)C(=O)C[C@]2(C)[C@@H]([C@@](C)(O)C3CCC(C)(C)O3)[C@H](O)C[C@@]12C (stereo not given in full) |  | > 100 | > 100 |  |
| N#CCCN(CCC#N)c1ccc(C(N=Nc2ccc(Cl)cc2)=Nc2ccccc2)cc1 |  | 27.2 | 28 |  |
| O=C1c2c(O)cc(O)cc2C(C2OC(CO)C(O)C(O)C2O)c2cc(CO)cc(O)c21 (stereo not given) | > 100 | > 100 | > 100 |  |
| CCCN(CCC)C(=S)N/N=C(/C)c1ccccc1O | > 29.5 | > 51.9 | 26.7 |  |
| CN(C)CCNCc1ccc2c(-c3ccccc3)nc3cc(Cl)c(Cl)cc3n12 | 11.6 | 14.8 | 15.2 |  |
| O=C1C2=Cc3ccccc3OC2(O)Oc2ccccc21 (stereo not given) |  |  | > 100 |  |
| C[C@@H](CC(=O)O)OC1OC(COC(=O)C(C)(C)C)C(OC(=O)C(C)(C)C)C(OC(=O)C(C)(C)C)C1OC(=O)C(C)(C)C (stereo not given in full) | 46.3 | 64.4 | > 100 |  |
| CC(C)(C)OC(=O)N1CC(CCl)c2ccc(O)cc21 (stereo not given) | 5.29 | 3.38 | 12.3 |  |
| COc1cc2oc(=O)cc(C)c2c(OC)c1O |  | > 100 | > 100 |  |
| CO/N=C(/C)c1cccc(Nc2nc3ccc(Cl)cc3c3[nH]c4ccccc4c23)c1 | 32 | 13.5 | 20.5 |  |
| N#Cc1c(C#N)c(-c2ccccc2)n(Cc2ccccc2)c1N | > 100 | > 100 | > 100 |  |
| CNCCN[C@@H]1c2cc3c(cc2[C@@H](c2cc(OC)c(O)c(OC)c2)[C@H]2C(=O)OC[C@@H]21)OCO3 | 0.0483 | 1.04 | 0.487 |  |
| CNC(=O)N(CCC#N)CCN(C(=O)N(C)C)c1ccccc1 | > 100 | > 100 | > 100 |  |
| COc1cccc2c1C1(O)C2CCCCCCCCCC12OCCCO2 (stereo not given) | > 47.8 | > 100 | > 100 | TGI [12]: > 100 µM; TGI [2]: > 100 µM; TGI [4]: > 100 µM; TGI [7]: > 100 µM; TGI [9]: > 100 µM; TGI [10]: > 100 µM; TGI [11]: > 100 µM |
| Cn1nc2ccc([N+](=O)[O-])cc2[n+]1[O-] |  | > 100 | > 100 |  |
| O=[N+]([O-])C1=Cc2cc(Cl)ccc2OC1c1cccc2ccccc12 (stereo not given) | > 100 | 2.99 | 1.37 |  |
| C=C1[C@H]2O[C@H]2[C@@H](OC(C)=O)[C@@]2(C)[C@@H](OC(C)=O)C[C@@H](OC(=O)CCC)[C@@](C)(O)[C@@H]2[C@@H](OC(C)=O)[C@]2(O)[C@@H](C)C(=O)O[C@H]2[C@H]1Cl | > 100 | > 100 | > 100 |  |
| CC(=O)NC1C(OC(C)C(=O)NC(C(=O)NC(CCC(=O)NCCCNC2c3ccccc3Nc3cccc([N+](=O)[O-])c32)C(N)=O)C(C)C)C(O)C(CO)OC1(C)OCc1ccccc1 (stereo not given) |  | 2.19 | 2.35 |  |
